Laboratory results published in patent US9932300B2, “N,N′-diarylurea compounds and N,N′-diarylthiourea compounds as inhibitors of translation initiation” (President and Fellows of Harvard College, priority 2009, dated 2018).

System: eIF2-GTP-Met-tRNAi ternary complex
Test: Ternary complex assay (dual luciferase, firefly/renilla ratio) in stable KLN-tTA/pBISA-DL(ATF-4) cells; HTS and hit confirmation
Assay type: cell-based, mouse
Design: Activity 10 uM / Activity 2.5 uM / Activity 5 uM: unit not given here
Conditions: confirmed hits of the screen (Table 5); for Activity 2.5 uM: compound at 2.5 uM; for Activity 10 uM: compound at 10 uM; for Activity 5 uM: compound at 5 uM

Row | Compound | Activity 2.5 uM | Activity 10 uM | Activity 5 uM
1 | [C-]#[O+].[C-]#[O+].[C-]#[O+].[C-]#[O+].[C-]#[O+].[CH]1[CH][CH][CH][CH]1.[CH]1[CH][CH][CH][CH]1.[Mo].[Mo].c1ccc(P(CCP(c2ccccc2)c2ccccc2)c2ccccc2)cc1 [Compound 635072] | 1.59 | 5.58 | 
2 | Cc1cc(N(C)C)cc(C)c1C(=Nc1ccc(N=C(NO)c2c(C)cc(N(C)C)cc2C)cc1)NO.Cl [Compound 109535] |  | 6.3 | 3.9
3 | Cc1cc[c]([Hg][S]C(=S)NNc2ccccc2)cc1 [Compound 631946] | 13.13 |  | 
4 | CCCCSC1=CC(=O)c2ccccc2C1=O [Compound 149109] | 18.18 |  | 
5 | Oc1[nH]c2ccccc2c1N=NC(=S)N1CCCC1 [Compound 668494] | 3.76 | 13.68 | 
6 | O=C(Nc1ccc(Cl)cc1)Nc1ccc(Cl)c(Cl)c1 [Compound 72005] |  | 16.9235 | 11.25
7 | O=C(Nc1ccccc1O)/C(Cl)=C/Cl [Compound 157236] | 0.75 | 3.4 | 
8 | Clc1cc[c]([Sb]2([c]3ccc(Cl)cc3)([c]3ccc(Cl)cc3)[O]C(C(Cl)(Cl)Cl)[O]2)cc1 (stereo not drawn) [Compound 316746] | 0.88 | 6.11 | 
9 | CN(C)c1ccc(N=Nc2cccc(C(=O)[O-])c2)cc1.CN(C)c1ccc(N=Nc2cccc(C(=O)[O-])c2)cc1.NC1CCCCC1N.O=[N+]([O-])O.[Pt+4] [Compound 608144] | 3.82 | 112.47 | 
10 | CCOC(=O)C(C(=O)OCC)c1ccc([N+](=O)[O-])o1 [Compound 643139] |  | 7.511 | 
11 | CCc1ccc(N=Nc2ccccc2)cc1 [Compound 106344] |  | 4.1 | 3.1
12 | CCN1/C(=C/c2cc(C)nc(-c3ccccc3)[n+]2C)C=Cc2ccccc21.[Cl-] [Compound 43683] | 3.73 | 5.26 | 
13 | COc1cc2c(cc1C[N+](C)(C)CSc1ccccc1)-c1ccccc1CC2.[Br-] [Compound 378135] | 1.75 | 3.15 | 
14 | CN(C)c1ccc(/C=C/c2ccc3ccccc3[n+]2[O-])cc1 [Compound 268776] |  | 5.5035 | 5.767
15 | O=C1C=CC(=O)c2c1ccc1c3ccccc3n(CCCCCn3c4ccccc4c4ccc5c(c43)C(=O)C=CC5=O)c21 [Compound 668605] | 0.8 | 3.17 | 
16 | S=C(NCc1ccccc1)N/N=C/c1ccccn1 [Compound 670969] | 1.55 | 3.644 | 
17 | CN(C)c1ccc(/C=C/c2nccc3ccccc23)cc1 [Compound 408399] | 1.63 | 3.42 | 
18 | COc1ccc(/C=C/c2ccc3ccccc3n2)cc1O.Cl [Compound 59070] |  | 7.423 | 6.227
19 | O=C(Nc1ncc([N+](=O)[O-])s1)c1cccnc1 [Compound 276393] |  | 8.706 | 6.644
20 | CCCCCCCCCCCCCCCCCC[n+]1cccc(C(=O)c2ccccc2)c1.[Br-] [Compound 122844] | 1.77 | 13.27 | 

Row | Compound | Activity 2.5 uM | Activity 10 uM | Activity 5 uM
21 | c1ccc(-c2ccc(N=NN3CCCC3)cc2)cc1 [Compound 687753] |  | 6.931 | 4.922
22 | CC1=NN(c2ccccc2)C(=O)C1=C1SCCCS1 [Compound 643762] | 1.99 | 3.47 | 
23 | Clc1ccc(-c2ncc(-c3ccccc3)o2)c(Cl)c1 [Compound 90467] | 2.6 | 3.88 | 
24 | COc1ccccc1NC(=S)N/N=C/c1ccccn1 [Compound 668298] | 11.99 | 30.06 | 
25 | CCCCCCCCCCCC(c1ccccc1)[N+](C)(C)Cc1ccccc1.[Cl-] (stereo not drawn) [Compound 69510] |  | 10.9 | 5.6
26 | Oc1ccc(-c2nnc(-c3ccccc3)nn2)cc1 [Compound 171134] | 2.89 | 3.68 | 
27 | [O-][n+]1c2ccccc2nn1-c1ccc(N(CCCl)CCCl)cc1 [Compound 260514] | 1.94 | 3.87 | 
28 | CCC[CH2][Sn]([C]#[C][Sn]([CH2]CCC)([CH2]CCC)[CH2]CCC)([CH2]CCC)[CH2]CCC [Compound 203205] | 3.12 |  | 
29 | CCCCCCCC(=O)[O][Hg][c]1ccccc1 [Compound 122854] |  | 3.2 | 
30 | CC(C)(C)c1cc(C(O)(C(F)(F)F)C(F)(F)F)c(Cl)c(C(O)(C(F)(F)F)C(F)(F)F)c1 [Compound 361407] | 0.62 | 3.7 | 
31 | ClCCN(CCCl)c1ccc(C(Cl)(c2ccc(N(CCCl)CCCl)cc2)c2ccc(N(CCCl)CCCl)cc2)cc1 [Compound 89864] |  | 10.1 | 9.4
32 | CN(C)c1ccc(N=Nc2cccc([N+](=O)[O-])c2)cc1 [Compound 204512] | 2.67 | 4.16 | 
33 | CCCCCCCCCCCCCCCCCC[N+](C)(C)C.Cc1ccc(S(=O)(=O)[O-])cc1 [Compound 74566] |  | 3.7 | 1.7
34 | CCOC(=O)CN1N=C([P+](c2ccccc2)(c2ccccc2)c2ccccc2)CC1(c1ccccc1)c1ccccc1.[Br-] [Compound 135745] |  | 6.5 | 3.2
35 | O=c1n(-c2ccc(Cl)c(Cl)c2)c(=O)n(-c2ccc(Cl)c(Cl)c2)c(=O)n1-c1ccc(Cl)c(Cl)c1 [Compound 664259] | 2.76 | 4.24 | 
36 | O=C(Nc1cccc(Cl)c1)Nc1cccc(Cl)c1 [Compound 69625] |  | 4.8565 | 6.201
37 | O=C1c2c(-c3ccccc3)ccc(-c3ccccc3)c2C2(O)OC1(O)c1c(-c3ccccc3)ccc(-c3ccccc3)c1C2=O [Compound 361889] | 0.88 | 12.01 | 
38 | CCCCCCCCC(N)CCCCCCCC.Cl [Compound 14209] | 0.85 | 14.32 | 
39 | CN(C)Cc1[c-]c(CN(C)C)ccc1.[Br][Pt] [Compound 315819] | 2.12 | 13.17 | 
40 | c1ccc2c(c1)cnc1c3ccccc3nn21 [Compound 292587] |  | 3.294 | 2.577
